Laboratory results reported in patent US11492335B2, “Aryl or heteroaryl triazolone derivatives or salts thereof, or pharmaceutical compositions comprising the same” (YUHAN CORPORATION, priority 2018, dated 2022).
Counter-ions that a name gives are not always drawn.

How the values were obtained:
Assay type in all cases: biochemical
recombinant human VAP-1 = molecular target: T1, recombinant human VAP-1 (Homo sapiens, UniProt Q16853); experiment: Activity on recombinant human VAP-1, Amplex Red HRP-coupled hydrogen peroxide assay, benzylamine substrate; conditions: recombinant human VAP-1, benzylamine substrate; read-out: Inhibitory Activity (IC50, nM) human VAP-1
T1 construct: purchased R&D systems
T1 sequence (Q16853 1-763): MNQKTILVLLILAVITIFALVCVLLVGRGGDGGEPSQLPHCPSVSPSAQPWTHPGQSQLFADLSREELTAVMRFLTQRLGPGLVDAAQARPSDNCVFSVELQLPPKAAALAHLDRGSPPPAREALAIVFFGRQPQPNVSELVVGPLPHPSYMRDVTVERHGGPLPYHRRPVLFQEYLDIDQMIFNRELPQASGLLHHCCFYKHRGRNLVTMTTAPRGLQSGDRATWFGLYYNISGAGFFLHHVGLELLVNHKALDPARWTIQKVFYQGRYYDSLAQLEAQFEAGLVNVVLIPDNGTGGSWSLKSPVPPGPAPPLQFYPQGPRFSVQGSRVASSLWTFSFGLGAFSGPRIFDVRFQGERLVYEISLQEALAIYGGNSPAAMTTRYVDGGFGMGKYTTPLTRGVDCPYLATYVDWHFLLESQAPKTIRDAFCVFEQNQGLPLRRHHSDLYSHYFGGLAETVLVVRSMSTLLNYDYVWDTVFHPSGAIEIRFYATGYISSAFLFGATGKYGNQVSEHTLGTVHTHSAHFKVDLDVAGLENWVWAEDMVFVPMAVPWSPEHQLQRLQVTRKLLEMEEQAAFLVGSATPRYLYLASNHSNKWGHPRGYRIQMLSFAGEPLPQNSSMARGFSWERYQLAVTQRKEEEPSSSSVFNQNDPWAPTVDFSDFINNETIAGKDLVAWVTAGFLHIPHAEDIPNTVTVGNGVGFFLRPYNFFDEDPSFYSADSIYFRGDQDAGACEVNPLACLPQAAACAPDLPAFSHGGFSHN
Summary of the method: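 H2O2 generation from 1 mM benzylamine was coupled via 1 U/mL HRP to 200 uM Amplex Red; inhibitors, serially diluted 1:3 over 8 points with under 1% final DMSO, had been preincubated 30 min at 37 °C. IC50 from percentage drop in rate.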

[1] = molecular target: T2, recombinant human MAO-B (monoamine oxidase-B) (Homo sapiens, UniProt P27338); experiment: Activity on recombinant human MAO-B, Amplex Red method, 1 mM benzylamine substrate; conditions: 1 mM benzylamine substrate, read-out: Inhibitory Activity (IC50, nM) MAO-B
T2 construct: purchased Sigma-Aldrich
T2 sequence (P27338 1-520): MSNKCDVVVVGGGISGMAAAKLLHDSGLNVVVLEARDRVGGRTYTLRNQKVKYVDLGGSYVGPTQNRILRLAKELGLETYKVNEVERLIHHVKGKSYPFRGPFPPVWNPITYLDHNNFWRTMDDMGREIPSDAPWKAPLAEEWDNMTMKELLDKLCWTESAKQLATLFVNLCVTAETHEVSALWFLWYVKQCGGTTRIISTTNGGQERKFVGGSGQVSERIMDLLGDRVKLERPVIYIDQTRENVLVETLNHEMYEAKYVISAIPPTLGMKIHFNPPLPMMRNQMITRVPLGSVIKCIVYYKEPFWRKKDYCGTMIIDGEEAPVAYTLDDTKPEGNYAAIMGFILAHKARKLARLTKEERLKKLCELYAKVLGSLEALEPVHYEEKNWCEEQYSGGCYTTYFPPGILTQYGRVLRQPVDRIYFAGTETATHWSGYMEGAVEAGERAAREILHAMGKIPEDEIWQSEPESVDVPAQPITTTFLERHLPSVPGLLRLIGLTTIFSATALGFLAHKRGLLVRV
Summary of the method: (§1)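 First, serially diluted compounds were incubated with recombinant enzyme in 50 mM sodium phosphate, pH 7.4, for 30 min at 37° C. Next, Amplex Red (200 uM), HRP (1 U/mL) and tyramine (0.5 mM, MAO-A) or benzylamine (1 mM, MAO-B) were added. Then fluorescence was monitored over 1-2 h and IC50 fitted.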

[2] = molecular target: T3, recombinant human MAO-A (monoamine oxidase-A) (Homo sapiens, UniProt P21397); experiment: Activity on recombinant human MAO-A, Amplex Red method, 0.5 mM tyramine substrate; conditions: 0.5 mM tyramine substrate, read-out: Inhibitory Activity (IC50, nM) MAO-A
T3 construct: purchased Sigma-Aldrich
T3 sequence (P21397 1-527): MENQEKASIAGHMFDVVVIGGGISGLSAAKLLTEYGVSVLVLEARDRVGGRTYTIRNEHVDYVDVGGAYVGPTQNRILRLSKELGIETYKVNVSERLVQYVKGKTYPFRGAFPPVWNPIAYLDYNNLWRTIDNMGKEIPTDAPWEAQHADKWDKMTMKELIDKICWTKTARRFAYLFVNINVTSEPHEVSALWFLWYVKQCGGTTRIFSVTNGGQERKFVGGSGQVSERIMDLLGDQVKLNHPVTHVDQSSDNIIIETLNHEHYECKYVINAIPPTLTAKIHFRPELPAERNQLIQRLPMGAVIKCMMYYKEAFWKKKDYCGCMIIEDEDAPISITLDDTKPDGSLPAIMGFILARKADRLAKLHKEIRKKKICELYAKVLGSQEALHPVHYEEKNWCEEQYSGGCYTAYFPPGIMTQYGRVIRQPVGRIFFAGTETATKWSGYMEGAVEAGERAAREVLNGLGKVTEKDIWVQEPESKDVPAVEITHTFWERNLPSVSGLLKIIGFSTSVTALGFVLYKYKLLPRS
Summary of the method: as §1

[3] = molecular target: T4, recombinant human DAO (diamine oxidase) (Homo sapiens, UniProt P19801); experiment: Activity on recombinant human DAO, Amplex Red method, 1 mM putrescine substrate; conditions: recombinant human DAO, 1 mM putrescine substrate; read-out: Inhibitory Activity (IC50, nM) DAO
T4 construct: purchased R&D systems
T4 sequence (P19801 20-751): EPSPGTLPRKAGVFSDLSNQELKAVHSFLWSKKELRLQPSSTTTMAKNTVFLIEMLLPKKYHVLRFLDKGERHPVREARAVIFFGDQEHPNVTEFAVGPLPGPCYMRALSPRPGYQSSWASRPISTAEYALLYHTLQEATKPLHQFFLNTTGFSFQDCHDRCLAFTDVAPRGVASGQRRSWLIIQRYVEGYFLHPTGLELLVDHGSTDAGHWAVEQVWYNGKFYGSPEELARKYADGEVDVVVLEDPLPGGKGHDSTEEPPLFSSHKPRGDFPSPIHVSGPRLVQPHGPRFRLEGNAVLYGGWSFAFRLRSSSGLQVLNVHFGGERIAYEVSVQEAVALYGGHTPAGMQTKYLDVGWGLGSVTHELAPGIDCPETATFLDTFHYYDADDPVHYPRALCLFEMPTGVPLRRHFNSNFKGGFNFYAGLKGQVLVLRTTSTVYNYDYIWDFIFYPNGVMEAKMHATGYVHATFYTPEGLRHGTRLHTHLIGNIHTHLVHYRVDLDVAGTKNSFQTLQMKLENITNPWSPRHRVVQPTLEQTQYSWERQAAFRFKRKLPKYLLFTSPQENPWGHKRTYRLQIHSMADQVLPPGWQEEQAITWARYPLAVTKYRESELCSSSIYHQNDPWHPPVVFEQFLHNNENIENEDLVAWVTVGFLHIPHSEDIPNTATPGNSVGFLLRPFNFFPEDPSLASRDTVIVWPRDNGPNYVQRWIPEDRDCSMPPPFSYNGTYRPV
Summary of the method: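 Inhibition of recombinant human DAO (diamine oxidase, R&D systems) was assessed with the Amplex Red Hydrogen Peroxide Assay Kit. Hydrogen peroxide produced from 1 mM putrescine was detected through an HRP-coupled reaction that converts Amplex Red into fluorescent resorufin, read at 544 nm excitation and 590 nm emission. IC50 values came from four-parameter logistic fits in GraphPad Prism.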

Structure (SMILES)	IC50 (recombinant human VAP-1) [nM]	IC50 [1] [nM]	IC50 [2] [nM]	IC50 [3] [nM]
CN(C)c1ccc(/C=C/c2cccc(-n3cnn(C/C(=C/F)CN)c3=O)n2)cc1 [Example 239, 2-[(E)-2-(aminomethyl)-3-fluoro-allyl]-4-[6-[(E)-2-[4-(dimethylamino)phenyl]vinyl]-2-pyridyl]-1,2,4-triazol-3-one hydrochloride]	1.6	230	> 100000	1600
CN1CNc2cc(/C=C/c3cccc(-n4cnn(C/C(=C/F)CN)c4=O)n3)cnc21 [Example 240, 2-[(E)-2-(aminomethyl)-3-fluoro-allyl]-4-[6-[(E)-2-(3-methyl-1,2-dihydroimidazo[4,5-b]pyridin-6-yl)vinyl]-2-pyridyl]-1,2,4-triazol-3-one hydrochloride]	1	> 10000	> 100000	4
NC/C(=C\F)Cn1ncn(-c2cccc(/C=C/c3cnc4[nH]c(=O)oc4c3)n2)c1=O [Example 242, 6-[(E)-2-[6-[1-[(E)-2-(aminomethyl)-3-fluoro-allyl]-5-oxo-1,2,4-triazol-4-yl]-2-pyridyl]vinyl]-3H-oxazolo[4,5-b]pyridin-2-one hydrochloride]	1.5	> 10000	> 100000	21
NC/C(=C\F)Cn1ncn(-c2cccc(C#Cc3cccnc3)c2)c1=O [Example 243, 2-[(2E)-2-(aminomethyl)-3-fluoroprop-2-en-1-yl]-4-[3-(pyridin-3-ylethynyl)phenyl]-2,4-dihydro-3H-1,2,4-triazol-3-one hydrochloride]	0.6	940	> 100000	18
NC/C(=C\F)Cn1ncn(-c2cc(C#Cc3ccccn3)ccn2)c1=O [Example 244, 2-[(2E)-2-(aminomethyl)-3-fluoroprop-2-en-1-yl]-4-[4-(pyridin-2-ylethynyl)pyridin-2-yl]-2,4-dihydro-3H-1,2,4-triazol-3-one hydrochloride]	0.8	100	> 100000	12
NC/C(=C\F)Cn1ncn(-c2cc(C#Cc3cccnc3)ccn2)c1=O [Example 245, 2-[(2E)-2-(aminomethyl)-3-fluoroprop-2-en-1-yl]-4-[4-(pyridin-3-ylethynyl)pyridin-2-yl]-2,4-dihydro-3H-1,2,4-triazol-3-one hydrochloride]	0.9	300	> 100000	11
NC/C(=C\F)Cn1ncn(-c2cccc(C#Cc3ccc4c(c3)NCCO4)n2)c1=O [Example 250, 2-[(E)-2-(aminomethyl)-3-fluoro-allyl]-4-[6-[2-(3,4-dihydro-2H-1,4-benzoxazin-6-yl)ethynyl]-2-pyridyl]-1,2,4-triazol-3-one]	0.7	> 10000	> 100000	74

These reach a lower IC50 (recombinant human VAP-1). Values come first.

IC50 (recombinant human VAP-1) [nM]	IC50 [1] [nM]	IC50 [2] [nM]	IC50 [3] [nM]	Structure (SMILES)
0.5	> 10000	> 100000	1	NC/C(=C\F)Cn1ncn(-c2cccc(/C=C/c3cnc4c(c3)NC(=O)CO4)n2)c1=O [Example 241, 7-[(E)-2-[6-[1-[(E)-2-(aminomethyl)-3-fluoro-allyl]-5-oxo-1,2,4-triazol-4-yl]-2-pyridyl]vinyl]-1H-pyrido[2,3-b][1,4]oxazin-2-one hydrochloride]
0.5	130	> 100000	12	NC/C(=C\F)Cn1ncn(-c2cc(C#Cc3ccncc3)ccn2)c1=O [Example 246, 2-[(2E)-2-(aminomethyl)-3-fluoroprop-2-en-1-yl]-4-[4-(pyridin-4-ylethynyl)pyridin-2-yl]-2,4-dihydro-3H-1,2,4-triazol-3-one hydrochloride]
0.3	4300	> 100000	14	COc1ccc(C#Cc2cccc(-n3cnn(C/C(=C/F)CN)c3=O)n2)cn1 [Example 247, 2-[(2E)-2-(aminomethyl)-3-fluoroprop-2-en-1-yl]-4-{6-[(6-methoxypyridin-3-yl)ethynyl]pyridin-2-yl}-2,4-dihydro-3H-1,2,4-triazol-3-one]
0.5	> 10000	> 100000	36	CN(C)c1ccc(C#Cc2cccc(-n3cnn(C/C(=C/F)CN)c3=O)n2)cn1 [Example 248, 2-[(E)-2-(aminomethyl)-3-fluoro-allyl]-4-[6-[2-[6-(dimethylamino)-3-pyridyl]ethynyl]-2-pyridyl]-1,2,4-triazol-3-one]
0.4	2000	> 100000	8	NC/C(=C\F)Cn1ncn(-c2cccc(C#Cc3ccc(N4CCOCC4)nc3)n2)c1=O [Example 249, 2-[(E)-2-(aminomethyl)-3-fluoro-allyl]-4-[6-[2-(6-morpholino-3-pyridyl)ethynyl]-2-pyridyl]-1,2,4-triazol-3-one]
0.3	> 10000	> 100000	21	NC/C(=C\F)Cn1ncn(-c2cccc(C#Cc3cnc4c(c3)NCCO4)n2)c1=O [Example 251, 2-[(E)-2-(aminomethyl)-3-fluoro-allyl]-4-[6-[2-(2,3-dihydro-1H-pyrido[2,3-b][1,4]oxazin-7-yl)ethynyl]-2-pyridyl]-1,2,4-triazol-3-one]
